In patent US7202244B2, “Chk-1 inhibitors” (Millennium Pharmaceuticals, Inc., priority 2002, dated 2007):

Key:
[1] = system: HT29, HCT116 or other cells; test: WST assay: enhancement of cell killing by DNA damaging agents; assay type: cell-based; settings: shift of 1 = no shift
Description: HT29, HCT116 (5000 cells/well) or other cells were seeded (75 ul) to 96 well clear bottom plates at densities which provide linear growth curves for 72 hours. Cells were cultured under sterile conditions in appropriate media and for HT29 & HCT116 this media was McCoy's 5A containing 10% Fetal Bovine Serum (FBS). Following the initial seeding of cells they are incubated at 37° C., 5% CO2 from 17 to 24 hours at which time the appropriate DNA damaging agents (camptothecins, 5-fluorouracil and etoposid) are added at increasing concentrations to a point which is capable of causing at least 80% cell killing with in 48 hours. Final volume of all DNA damaging agent & compound additions was 25 ul and assays contained <1% DMSO final. At the same time as DNA Damaging agent addition, Chk1 inhibitor was added at fixed concentrations to each DNA damaging agent titration to observe enhancement of cell killing. In addition, toxicity of each Chk1 inhibitor alone was observed. By doing this over a range of Chk1 inhibitor concentrations we were able to identify compounds which maximally enhance (2–30 fold) cell killing by each DNA damaging agent and generated ≦80% cell killing by the compound alone. Cell viability/cell killing under the conditions described above was determined by addition WST reagent (Roche) according to the manufacturer at 47 hours following DNA damage & Chk1 inhibitor addition and following a 3.5 hour or 2.5 hour incubation at 37 C, 5% CO2, OD450 was measured.

[2] = target: T1, GST-Chk1 (recombinant human Chk1) (Homo sapiens, UniProt O14757); test: Chk1 FlashPlate kinase assay; assay type: biochemical; settings: 1 uM ATP
T1 construct: made in house; host or cells: insect cells (Bac-to-Bac baculovirus system)
T1 sequence (O14757 1-476): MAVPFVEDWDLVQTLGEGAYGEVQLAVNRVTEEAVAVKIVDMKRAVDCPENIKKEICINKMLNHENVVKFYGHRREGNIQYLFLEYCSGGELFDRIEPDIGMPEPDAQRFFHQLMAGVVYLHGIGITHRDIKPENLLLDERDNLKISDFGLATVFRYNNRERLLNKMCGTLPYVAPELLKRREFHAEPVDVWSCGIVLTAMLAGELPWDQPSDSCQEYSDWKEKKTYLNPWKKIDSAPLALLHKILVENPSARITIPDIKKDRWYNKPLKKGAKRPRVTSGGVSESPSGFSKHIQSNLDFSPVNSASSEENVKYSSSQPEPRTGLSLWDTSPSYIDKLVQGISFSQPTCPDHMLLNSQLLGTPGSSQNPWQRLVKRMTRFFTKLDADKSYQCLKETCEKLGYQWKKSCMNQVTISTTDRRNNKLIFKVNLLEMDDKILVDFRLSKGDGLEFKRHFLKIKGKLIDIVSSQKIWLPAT
Description: Recombinant human Chk1 was expressed as a fusion protein with glutathione S-transferase at the amino-terminus (GST-Chk1) using standard baculovirus vectors and (Bac-to-Bac®) insect cell expression system purchased from GIBCO™ Invitrogen. Recombinant protein expressed in insect cells was purified using glutathione sepharose (Amersham Biotech) using standard procedures described by the manufacturer.
Chk1 FlashPlate® Kinase Assay:
Reactions were incubated for 30 minutes at room temperature, terminated with 50 ul of 50 mM EDTA and 90 ul were transferred to streptavidin-coated FlashPlates® (NEN) and incubated for 1 hour at room temperature. Plates were washed with phosphate buffered salaine containing 0.01% Tween-20 and 10 mM sodium pyrophosphate. Plates were dried, sealed with Topseal™ (NEN) and amount of ^33P incorporated into the peptide substate measure using a Packard Topcount® NXT™ scintillation counter with standard settings.
Compounds of the present invention were tested in the Chk1 FlashPlate® kinase assay described above.

CHK-1 = target: T2, CHK-1 (Homo sapiens, UniProt O14757); test: IC50 for the test compound versus CHK-1 (Table 2, assay format not stated); assay type: biochemical
T2 sequence (O14757 1-476): T1 sequence (O14757 1-476)

IC50 [2]: < 100 nM
IC50 (CHK-1): 4.5 nM
SMILES: Cc1cnc(NC(=O)Nc2cc(Cl)ccc2OCCCN(C)C)cn1 [Example 25, 1-[5-Chloro-2-(3-dimethylamino-propoxy)-phenyl]-3-(5-methyl-pyrazin-2-yl)-urea]
Shift 156 nM ([1]; Chk1 inhibitor fixed at 156 nM with DNA damaging agent titration): 1.1
Shift 313 nM ([1]; Chk1 inhibitor fixed at 313 nM with DNA damaging agent titration): 1.7
Shift 625 nM ([1]; Chk1 inhibitor fixed at 625 nM with DNA damaging agent titration): 2.5
Shift 1.25 μM ([1]; Chk1 inhibitor fixed at 1.25 μM with DNA damaging agent titration): 3.3
Shift 2.5 μM ([1]; Chk1 inhibitor fixed at 2.5 μM with DNA damaging agent titration): 4.4
